The results in this text go back to ChEMBL document CHEMBL1134989, “Synthesis and stability study of a modified phenylpropionic acid linker-based esterase-sensitive prodrug” (Bioorg Med Chem Lett, 2002).

The nature of data set [1]: Half-life of the parent prodrug in porcine esterase solution. Particulars: pig. In kind it is ADME, Sus scrofa.
A short description of data set [2]: Half-life of the parent prodrug in plasma. In kind it is ADME, cell-free. The conditions noted are these: human.
Data set [3] in a line: Half-life in human plasma. In kind it is ADME, cell-free.

Usually half-life stands for the time needed for the level to fall by half in the phase considered.

Turning to `COc1ccc(NC(=O)CC(C)(C)c2c(C)cc(C)cc2OC(C)=O)cc1`, the values for the T1/2 in data set [1] and in data set [2] were 11.9 min and 53.7 min, respectively.
For `COc1ccc(NC(=O)CC(C)(C)c2c(OC)cc(OC)cc2OC(C)=O)cc1`, the half-life in data set [3] is 52 min.
